Experiments:
Format in all cases: in vivo
[1] = tested on: Foxtail, Giant (giant foxtail, Setaria faberi); experiment: Test A1 preemergence, Foxtail, Giant
How it was run: (§1)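 Herbicidal response was scored on plants treated either preemergence, by directed spray onto soil of a loam–sand blend after sowing, or postemergence on potted plants at the one- to two-leaf stage, 2–10 cm high. Test chemicals were carried in a non-phytotoxic solvent mix with surfactant.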

kochia (Bassia scoparia) = experiment: Test A1 preemergence, kochia
How it was run: as §1

[2] = tested on: Oat, Wild (wild oat, Avena fatua); experiment: Test A1 preemergence, Oat, Wild
How it was run: as §1

[3] = tested on: wheat (Triticum aestivum); experiment: Test A1 postemergence, wheat; conditions: Postemergence
How it was run: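 Both timings started from seed in a loam-sand blend. Preemergence pots got a directed soil application immediately; postemergence pots were sprayed when seedlings had one or two leaves and stood 2–10 cm. Each compound was prepared in a non-phytotoxic solvent plus surfactant.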

[4] = tested on: barnyardgrass (Echinochloa crus-galli); experiment: Test B1 flooded paddy test, barnyardgrass; conditions: 250 g ai/ha, Flood, applied to paddy water, 2-leaf stage, visually evaluated after 10 to 14 days
Excerpt: (§2) A dash (-) response means no test result.

[5] = tested on: ducksalad (Heteranthera limosa); experiment: Test B1 flooded paddy test, ducksalad; conditions: 250 g ai/ha, Flood, applied to paddy water, 2-leaf stage, visually evaluated after 10 to 14 days
Excerpt: as §2

rice (Oryza sativa) = experiment: Test B1 flooded paddy test, rice; conditions: 250 g ai/ha, Flood, applied to paddy water, 2-leaf stage, visually evaluated after 10 to 14 days
Excerpt: as §2

[6] = 31 g ai/ha, 0 to 100 scale (0 no effect, 100 complete control)
[7] = 125 g ai/ha, 0 to 100 scale, 0 no effect, 100 complete control
[8] = 31 g ai/ha, 0 to 100 scale (0 no effect, 100 complete control), 10 days

SMILES | Plant response rating, Foxtail, Giant [1, 6] | Plant response rating, Foxtail, Giant [1, 7] | Plant response rating, Kochia (kochia (Bassia scoparia); [6]) | Plant response rating, Kochia (kochia (Bassia scoparia); [7]) | Plant response rating, Oat, Wild [2, 6] | Plant response rating, Oat, Wild [2, 7] | Plant response rating, Wheat [3, 8] | Plant response rating, Wheat ([3]; 125 g ai/ha, 0 to 100 scale) | Plant response rating, Barnyardgrass (0 to 100 scale, 0 is no effect, 100 is complete control) [4] | Plant response rating, Ducksalad (0 to 100 scale, 0 is no effect, 100 is complete control) [5] | Plant response rating, Rice (0 to 100 scale, 0 is no effect, 100 is complete control) (rice (Oryza sativa))
Cc1cc(C)c(N(COC(=O)C(C)(C)C)S(=O)(=O)C(F)(F)F)cc1C1=NOC2COCC12 (centres unmarked) [Compound 301] | 10 | 90 | 30 | 80 | 0 | 0 | 0 | 60 | 95 | 50 | 0
Cc1cc(Br)c(C2=NOC3CCCC23)cc1NS(=O)(=O)C(F)(F)F (centres unmarked) [Compound 302] | 20 | 80 | 30 | 80 | 0 | 20 | 0 | 10 | 0 | 70 | 0
Cc1cc(F)c(NS(=O)(=O)C(F)(F)F)cc1C1=NOC2(CCCC2)C1 [Compound 303] | 80 | 100 | 20 | 20 | 20 | 60 | 0 | 50 | 0 | 0 | 0
COc1cc(C)c(C2=NOC3(CCCC3)C2)cc1NS(=O)(=O)C(F)(F)F [Compound 304] | 0 | 80 | 0 | 0 | 50 | 0 | 0 | 20 | 0 | 0 | 0
CCc1cc(C)c(NS(=O)(=O)C(F)(F)F)cc1C1=NOC2CCCC12 (centres unmarked) [Compound 305] | 20 | 90 | 0 | 40 | 20 | 60 | 50 | 60 | 90 | 90 | 0
Cc1cc(C(F)(F)F)c(C2=NOC3CCCC23)cc1NS(=O)(=O)C(F)(F)F (centres unmarked) [Compound 306] | 0 | 20 | 0 | 30 | 0 | 10 | 0 | 20 | 0 | 85 | 0
Cc1cc(Br)c(NS(=O)(=O)C(F)(F)F)cc1C1=NOC2(CCCC2)C1 [Compound 309] | 60 | 90 | 0 | 50 | 20 | 60 | 0 | 40 | 0 | 60 | 0
